This note sets out measurements from patent US11718612B2, “Inhibitors of receptor interacting protein kinase I for the treatment of disease” (Board of Regents, The University of Texas System, priority 2019, dated 2023).

The subject of test [1] is U937 cells. In words: Human U937 cellular necroptosis assay. Format: cell-based. The settings on record: U-937; U937 cells stimulated with 25 ng/mL human TNFalpha and 25 μM z-VAD-FMK; 22 hr; Cell Titer-Glo viability. The procedure: Human U937 Cellular Necroptosis Assay
The human monocytic cell line U937 (CRL-1593.2) may be purchased from ATCC. The cells are routinely maintained in RPMI-1640 Medium (Gibco, Catalog #11875-093) supplemented with 10% heat inactivated fetal bovine serum (Gibco, Catalog #16140-071), 100 units/mL penicillin and 100 μg/mL streptomycin (Gibco, Catalog #15140-122), in a humidified incubator (37° C., 5% CO2). For the assay, cells are resuspended in RPMI-1640 phenol red free Media (Gibco, Catalog #11835-030) supplemented with 10% fetal bovine serum (Sigma, Catalog #F2442), 100 units/mL penicillin and 100 ug/mL streptomycin. […] Stock solutions of the test compounds are prepared in 100% DMSO (Sigma, Catalog #D2650) and serially diluted 1:3 using 100% DMSO. Compounds are additionally diluted 1:40 in assay medium, and 10 μL/well was transferred to the plate. Following the compound addition, the plate is incubated at 37° C. and 5% CO2 for 22 hr. After 22 hr, viability is assessed with the addition of 20 μL of Cell Titer-Glo 2.0 (Promega, Catalog #G9243). The tissue culture plate is shaken on an orbital shaker at 300 RPM for 15 minutes at room temperature in the dark. Luminescence is measured using a PerkinElmer Envision™ plate reader. IC50 values are calculated using a four-parameter logistic curve fit using Genedata Screener software.

In test [2] the target is RIPK1 (Homo sapiens (Human), UniProt Q13546). Put plainly: ADP-Glo kinase assay, RIPK1 activity. Conditions: 5 nM RIPK1, 50 μM ATP, 6 hr reaction. It is filed as biochemical. The procedure: In order to measure RIPK1 activity the ADP-Glo kinase assay (Promega, Catalog #V7002) was used to measure the conversion of ATP to ADP. This enzymatic assay was performed in a 384-well white, Optiplate (Perkin Elmer, Catalog #6007299) with assay buffer consisting of 50 mM HEPES pH 7.5 (Gibco, Catalog #15630-080), 50 mM NaCl (Teknova, Catalog #S0252), 30 mM MgCl2 (Ambion, Catalog #AM9530G), 1 mM DTT (Santa Cruz Biotechnology, Catalog #sc-29089), 0.05% BSA (Sigma, Catalog #A3059-50G) and 0.02% CHAPS (Sigma, Catalog #C5070-5G). Stock solutions of the test compounds were prepared in 100% DMSO (Sigma, Catalog #D2650) and serially diluted 1:3 using 100% DMSO. Compounds were additionally diluted 1:40 in assay buffer, and 2 μL/well were transferred to the assay plate. 4 μL/well (final concentration of 5 nM) of RIPK1 protein (SignalChem, Catalog #R07-11G-05) diluted in assay buffer and added to the assay plate followed by a 10 minute preincutation at room temperature. 4 μL/well of ATP (Promega, Catalog #V7002) (final concentration of 50 μM) diluted in assay buffer were then added to the assay plate followed by a 6 hr reaction time. Final concentrations of RIPK1 and ATP refer to a 10 μL volume. Luminescence was measured using a BioTek Synergy™ NEO plate reader. IC50 values were calculated using a four-parameter logistic curve fit using Genedata Screener software.
Chain of RIPK1 (Q13546 1-327): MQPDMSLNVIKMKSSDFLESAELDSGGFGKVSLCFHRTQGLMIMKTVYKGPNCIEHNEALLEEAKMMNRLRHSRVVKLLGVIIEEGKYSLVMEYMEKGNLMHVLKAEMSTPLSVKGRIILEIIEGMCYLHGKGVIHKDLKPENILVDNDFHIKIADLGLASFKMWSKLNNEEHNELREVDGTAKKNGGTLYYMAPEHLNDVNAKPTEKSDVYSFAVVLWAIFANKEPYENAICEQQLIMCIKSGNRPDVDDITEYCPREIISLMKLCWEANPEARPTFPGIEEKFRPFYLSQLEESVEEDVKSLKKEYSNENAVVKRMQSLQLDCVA
On the technique in general: In ADP-Glo the light output rises with the ADP produced.

By IC50 is commonly meant the midpoint of a concentration-inhibition curve.

For the molecule `O=C1c2nn(Cc3ccccc3)c(Cl)c2CCN1c1cccc(Cl)c1F` [Example 2, 2-Benzyl-3-chloro-6-(3-chloro-2-fluoro-phenyl)-4,5-dihydropyrazolo[3,4-c]pyridin-7-one], the half-inhibitory concentration (IC50) in test [1] is 71.2 nM; in test [2] it was 17.4 nM.

With `O=C1c2nn(Cc3cc(F)cc(F)c3)c(Cl)c2CCN1c1cccc(Cl)c1F` [Example 3, 3-Chloro-6-(3-chloro-2-fluorophenyl)-2-(3,5-difluorobenzyl)-5,6-dihydro-2H-pyrazolo[3,4-c]pyridin-7(4H)-one], the IC50 was found to be 189 nM in test [1] and 111 nM in test [2]. Taken in the same sequence, the figures for `Cc1nc(C(=O)Nc2cccc(Cl)c2F)nn1Cc1cnccn1` [Example 4, N-(3-Chloro-2-fluoro-phenyl)-5-methyl-1-(pyrazin-2-ylmethyl)-1,2,4-triazole-3-carboxamide] were 1430 nM and 110 nM.

Consider `Cc1cc(C(=O)Nc2cccc(Cl)c2F)nn1Cc1ccccc1` [Example 5, 1-benzyl-N-(3-chloro-2-fluoro-phenyl)-5-methyl-pyrazole-3-carboxamide], for which the IC50 in test [2] stood at 14500 nM. With `Cc1c(F)c(C(=O)Nc2cccc(Cl)c2F)nn1Cc1ccccc1` [Example 6, 1-Benzyl-N-(3-chloro-2-fluorophenyl)-4-fluoro-5-methyl-1H-pyrazole-3-carboxamide], in test [2], the IC50 came out at 920 nM. On to `O=C(Nc1cccc(Cl)c1F)c1ccn(Cc2ccccc2)n1` [Example 7, 1-Benzyl-N-(3-chloro-2-fluorophenyl)-1H-pyrazole-3-carboxamide], for which the half-inhibitory concentration (IC50) in test [2] worked out at 12100 nM.

On to `O=C(Nc1cccc(Cl)c1F)c1cc(O)n(Cc2cnccn2)n1` [Example 8, N-(3-chloro-2-fluoro-phenyl)-5-hydroxy-1-(pyrazin-2-ylmethyl)pyrazole-3-carboxamide], for which, in test [2], the IC50 amounted to 31200 nM. Consider `O=C(Nc1cccc(Cl)c1F)c1n[nH]c(Cc2ccccc2)n1` [Example 9, 5-benzyl-N-(3-chloro-2-fluoro-phenyl)-1H-1,2,4-triazole-3-carboxamide], for which the concentration for half-maximal inhibition (IC50) came to 6300 nM in test [1] and 245 nM in test [2]. As to `Cn1nc(C(=O)Nc2cccc(Cl)c2F)nc1Cc1ccccc1` [Example 10, 5-Benzyl-N-(3-chloro-2-fluoro-phenyl)-1-methyl-1,2,4-triazole-3-carboxamide], the IC50 was determined as 9220 nM in test [1] and 702 nM in test [2].

`Cn1cc(-c2cc(F)c(F)c(NC(=O)c3n[nH]c(Cc4ccccc4)n3)c2)cn1` [Example 11, 5-Benzyl-N-(2,3-difluoro-5-(1-methyl-1H-pyrazol-4-yl)-phenyl)-1H-1,2,4-triazole-3-carboxamide]: the results for the half-inhibitory concentration (IC50) in test [1] and in test [2] were above 10000 nM and 4060 nM, respectively. Take `O=C(Nc1cccc(Cl)c1F)c1ncn(Cc2ccccc2F)n1` [Example 12, N-(3-chloro-2-fluorophenyl)-1-(2-fluorobenzyl)-1H-1,2,4-triazole-3-carboxamide]: the IC50 was found to be 657 nM in test [1] and 18.6 nM in test [2].

As for `O=C(Nc1cccc(Cl)c1F)c1nc(Cc2ccccc2)c[nH]1` [Example 14, 4-Benzyl-N-(3-chloro-2-fluoro-phenyl)-1H-imidazole-2-carboxamide], the IC50 in test [2] amounted to 6960 nM. As for `O=C1c2nc(Cc3ccccc3)cn2CCN1c1cccc(Cl)c1F` [Example 15, 2-Benzyl-7-(3-chloro-2-fluoro-phenyl)-5,6-dihydroimidazo[1,2-a]pyrazin-8-one], the IC50 in test [2] was found to be 3150 nM. With `O=C1c2nc(Cc3ccccc3)c(Cl)n2CCN1c1cccc(Cl)c1F` [Example 16, 2-Benzyl-3-chloro-7-(3-chloro-2-fluoro-phenyl)-5,6-dihydroimidazo[1,2-a]pyrazin-8-one], in test [2], the concentration for half-maximal inhibition (IC50) turned out to be 123 nM. `O=C(Nc1cccc(Cl)c1F)c1nc(Cc2ccccc2)c(Cl)[nH]1` [Example 18, 4-Benzyl-5-chloro-N-(3-chloro-2-fluoro-phenyl)-1H-imidazole-2-carboxamide]: the IC50 in test [2] worked out at 18700 nM.

Consider `Cc1nc(C(=O)Nc2cccc(Cl)c2F)nn1Cc1cccc(C#N)c1` [Example 34, N-(3-chloro-2-fluoro-phenyl)-1-(3-cyano-benzyl)-5-methyl-1H-1,2,4-triazole-3-carboxamide], for which the IC50 in test [2] worked out at 472 nM. Turning to `O=C(Nc1ccc(Cl)c(Cl)c1F)c1ncn(Cc2ccccc2)n1` [Example 37, 1-benzyl-N-(3,4-dichloro-2-fluoro-phenyl)-1H-1,2,4-triazole-3-carboxamide], the half-maximal inhibitory concentration (IC50) in test [2] is 1100 nM. Take `O=C(Nc1cc(C(F)(F)F)cc(Cl)c1F)c1ncn(Cc2ccccc2)n1` [Example 38, 1-benzyl-N-(3-chloro-2-fluoro-5-(trifluoro-methyl)phenyl)-1H-1,2,4-triazole-3-carboxamide]: in test [2], the IC50 was 1300 nM. For the molecule `N#Cc1ccc(NC(=O)c2ncn(Cc3ccccc3)n2)c(F)c1Cl` [Example 39, 1-benzyl-N-(3-chloro-4-cyano-2-fluorophenyl)-1H-1,2,4-triazole-3-carboxamide], the concentration for half-maximal inhibition (IC50) in test [2] was found to be 1410 nM. With `O=C(Nc1ccc(Br)c(Cl)c1F)c1ncn(Cc2ccccc2)n1` [Example 40, 1-benzyl-N-(4-bromo-3-chloro-2-fluoro-phenyl)-1H-1,2,4-triazole-3-carboxamide], the IC50 in test [2] was 1650 nM.

Take `COc1ccc(N(C)C(=O)c2ncn(Cc3ccccc3)n2)c(F)c1Cl` [Example 41, 1-benzyl-N-(3-chloro-2-fluoro-4-methoxy-phenyl)-N-methyl-1H-1,2,4-triazole-3-carboxamide]: the IC50 in test [2] came to 9250 nM. Take `O=C1c2nc(Cc3ccccc3)c(Cl)n2CCN1c1cccc(Cl)c1` [Example 42, 2-benzyl-3-chloro-7-(3-chlorophenyl)-6,7-dihydroimidazo[1,2-a]pyrazin-8(5H)-one]: in test [2], the IC50 was 318 nM. On the same count and under the same terms, next, `O=C1c2nc(Cc3ccccc3)cn2CCN1c1cccc(Cl)c1` [Example 43, 2-benzyl-7-(3-chlorophenyl)-6,7-dihydroimidazo[1,2-a]pyrazin-8(5H)-one]: 13700 nM. Take `Cn1cc(C(=O)Nc2cccc(Cl)c2F)nc1Cc1ccccc1` [Example 44, 2-benzyl-N-(3-chloro-2-fluorophenyl)-1-methyl-1H-imidazole-4-carboxamide]: in test [2], the IC50 is above 33000 nM. Consider `O=C(Nc1cccc(Cl)c1F)c1c[nH]c(Cc2ccccc2)n1` [Example 45, 2-benzyl-N-(3-chloro-2-fluorophenyl)-1H-imidazole-4-carboxamide], for which the half-maximal inhibitory concentration (IC50) in test [2] was determined as 48600 nM.

With `O=C1c2cc(Cc3ccccc3)ccc2CN1c1ccccc1F` [Example 48, 6-Benzyl-2-(2-fluorophenyl)isoindolin-1-one], the IC50 in test [2] came out at 2470 nM.

In the case of `O=C1c2nc(Cc3ccccc3)ccc2CN1c1ccccc1F` [Example 49, 2-Benzyl-6-(2-fluorophenyl)-5,6-dihydro-7H-pyrrolo[3,4-b]pyridin-7-one], the IC50 in test [2] is 3680 nM. `Cc1cc(NC(=O)c2ncn(Cc3ccccc3)n2)ccc1OC(F)(F)F` [Example 53, 1-benzyl-N-(3-methyl-4-(trifluoromethoxy)-phenyl)-1H-1,2,4-triazole-3-carboxamide]: the IC50 in test [2] was determined as 4910 nM. For the molecule `O=C(Nc1cccc(Cl)c1F)c1ncn(Cc2cncc(F)c2)n1` [Example 103, N-(3-chloro-2-fluorophenyl)-1-((5-fluoropyridin-3-yl)methyl)-1H-1,2,4-triazole-3-carboxamide], the IC50 in test [2] amounted to 83.9 nM.
